Consider 7 compounds from ChEMBL document CHEMBL5724914, “Linking interpersonal differences in gut microbiota composition and drug biotransformation activity” (2024).

Data set [1] can be described thus: The drug is tested on Z-029 corresponding to rat gut metagenome with ENA study accession number: PRJEB37062 and ENA sample accession number: ERS12561828 for biotransformation under anaerobic condition. The drug concentrations were measured over 9 timepoints collected between 0 and 24 hours of incubation by liquid-chromatography-coupled mass spectrometry (LC–MS). Particulars: 2 µM.

Data set [2] is described as follows: The drug is tested on Z-028 corresponding to mouse gut metagenome with ENA study accession number: PRJEB37062 and ENA sample accession number: ERS12561827 for biotransformation under anaerobic condition. The drug concentrations were measured over 9 timepoints collected between 0 and 24 hours of incubation by liquid-chromatography-coupled mass spectrometry (LC–MS). Particulars: 2 µM.

Data set [3] can be described thus: The drug is tested on Z-027 corresponding to metagenome with ENA study accession number: PRJEB37062 and ENA sample accession number: ERS12561826 for biotransformation under anaerobic condition. The drug concentrations were measured over 9 timepoints collected between 0 and 24 hours of incubation by liquid-chromatography-coupled mass spectrometry (LC–MS). Particulars: 2 µM.

The nature of data set [4]: The drug is tested on Z-026 corresponding to metagenome with ENA study accession number: PRJEB37062 and ENA sample accession number: ERS12561825 for biotransformation under anaerobic condition. The drug concentrations were measured over 9 timepoints collected between 0 and 24 hours of incubation by liquid-chromatography-coupled mass spectrometry (LC–MS). The note with it: 2 µM.

Data set [5] is described as follows: The drug is tested on Z-018 corresponding to pig gut metagenome with ENA study accession number: PRJEB37062 and ENA sample accession number: ERS12561817 for biotransformation under anaerobic condition. The drug concentrations were measured over 9 timepoints collected between 0 and 24 hours of incubation by liquid-chromatography-coupled mass spectrometry (LC–MS). The note with it: 2 µM.

Data set [6] can be described thus: The drug is tested on Z-007 corresponding to rat gut metagenome with ENA study accession number: PRJEB37062 and ENA sample accession number: ERS12561807 for biotransformation under anaerobic condition. The drug concentrations were measured over 9 timepoints collected between 0 and 24 hours of incubation by liquid-chromatography-coupled mass spectrometry (LC–MS). The note with it: 2 µM.

Data set [7] in a line: The drug is tested on Z-003 corresponding to pig gut metagenome with ENA study accession number: PRJEB37062 and ENA sample accession number: ERS12561803 for biotransformation under anaerobic condition. The drug concentrations were measured over 9 timepoints collected between 0 and 24 hours of incubation by liquid-chromatography-coupled mass spectrometry (LC–MS). Particulars: 2 µM.

The conditions of data set [8]: human gut metagenome, 24 h, 2 µM.
The conditions of data set [9]: human gut metagenome, 24 h, 2 µM. The source holds these as a separate data set.
Data set [10] in a line: The drug is tested on WLS-310 corresponding to human gut metagenome with ENA study accession number: PRJEB37062 and ENA sample accession number: ERS12561785 for biotransformation under anaerobic condition. The drug concentrations were measured over 9 timepoints collected between 0 and 24 hours of incubation by liquid-chromatography-coupled mass spectrometry (LC–MS). Particulars: 2 µM.

Data set [11] in a line: The drug is tested on WLS-240 corresponding to human gut metagenome with ENA study accession number: PRJEB37062 and ENA sample accession number: ERS12561773 for biotransformation under anaerobic condition. The drug concentrations were measured over 9 timepoints collected between 0 and 24 hours of incubation by liquid-chromatography-coupled mass spectrometry (LC–MS). The note with it: 2 µM.

The nature of data set [12]: The drug is tested on WLS-098 corresponding to human gut metagenome with ENA study accession number: PRJEB37062 and ENA sample accession number: ERS12561754 for biotransformation under anaerobic condition. The drug concentrations were measured over 9 timepoints collected between 0 and 24 hours of incubation by liquid-chromatography-coupled mass spectrometry (LC–MS). The note with it: 2 µM.

Data set [13] in a line: The drug is tested on WLS-077 corresponding to human gut metagenome with ENA study accession number: PRJEB37062 and ENA sample accession number: ERS12561750 for biotransformation under anaerobic condition. The drug concentrations were measured over 9 timepoints collected between 0 and 24 hours of incubation by liquid-chromatography-coupled mass spectrometry (LC–MS). The note with it: 2 µM.

The nature of data set [14]: The drug is tested on WLS-006 corresponding to human gut metagenome with ENA study accession number: PRJEB37062 and ENA sample accession number: ERS12561741 for biotransformation under anaerobic condition. The drug concentrations were measured over 9 timepoints collected between 0 and 24 hours of incubation by liquid-chromatography-coupled mass spectrometry (LC–MS). Particulars: 2 µM.

The conditions of data set [15]: human gut metagenome, 24 h, 2 µM. This is another data set of the same source.
For data set [16] the following is noted: human gut metagenome, 24 h, 2 µM. This is another data set of the same source.
For data set [17] the following is noted: human gut metagenome, 24 h, 2 µM. The source holds these as a separate data set.
A short description of data set [18]: The drug is tested on WLS-170 corresponding to human gut metagenome with ENA study accession number: PRJEB37062 and ENA sample accession number: ERS12561762 for biotransformation under anaerobic condition. The drug concentrations were measured over 9 timepoints collected between 0 and 24 hours of incubation by liquid-chromatography-coupled mass spectrometry (LC–MS). Particulars: 2 µM.

For data set [19] the following is noted: human gut metagenome, 24 h, 2 µM. This is another data set of the same source.
The conditions of data set [20]: human gut metagenome, 24 h, 2 µM. The source holds these as a separate data set.

Where a SMILES comes first, the peptide text is derived from it. [ ]: non-standard residue; d: D form. pGlu = O=C1CC[C@@H](C(=O)O)N1; Thz = O=C(O)[C@@H]1CSCN1
Note: call rule not given here.

For the compound `CCCCCCOC(=O)/N=C(/N)c1ccc(NCc2nc3cc(C(=O)N(CCC(=O)OCC)c4ccccn4)ccc3n2C)cc1.CS(=O)(=O)O` [DABIGATRAN ETEXILATE MESYLATE], the “Bacterial Biotransformation” value in [1], in [2], in data set [3], in [4], in data set [5] and in [6] was “Compound NOT metabolized” each time. The “Bacterial Biotransformation” value in [7], in [8] and in [9] was “Compound NOT metabolized” throughout.

Take `O=c1[nH]c2ccccc2n1CCCN1CCC(n2c(=O)[nH]c3cc(Cl)ccc32)CC1` [DOMPERIDONE]: the “Bacterial Biotransformation” value in [1], in [2], in data set [3], in data set [4], in [5] and in [6] was “Compound NOT metabolized” in each case. Also, the “Bacterial Biotransformation” value in data set [7], in [10], in [11], in data set [12], in [13] and in data set [14] was “Compound NOT metabolized” in each case. Further, the “Bacterial Biotransformation” value in data set [15], in data set [16] and in data set [17] was “Compound NOT metabolized” in each case.

Regarding `OCCN1CCN(CCCN2c3ccccc3Sc3ccc(C(F)(F)F)cc32)CC1` [FLUPHENAZINE], the “Bacterial Biotransformation” value was “Compound NOT metabolized” in data set [1]; “Compound metabolized” in data set [2]; “Compound NOT metabolized” in data set [3]; “Compound NOT metabolized” in data set [4]; “Compound NOT metabolized” in [5]; “Compound NOT metabolized” in data set [6]. For the same compound, the “Bacterial Biotransformation” value is given as “Compound metabolized” in [7]; “Compound metabolized” in data set [10]; “Compound metabolized” in [11]; “Compound metabolized” in data set [18]; “Compound NOT metabolized” in [12]; “Compound NOT metabolized” in data set [14]. The “Bacterial Biotransformation” value is “Compound metabolized” in data set [8]; “Compound NOT metabolized” in data set [9]; “Compound metabolized” in data set [15]; “Compound metabolized” in data set [19]; “Compound metabolized” in [16]; “Compound NOT metabolized” in data set [17]. The “Bacterial Biotransformation” value in data set [20] is “Compound NOT metabolized”.

With `c1ccc([C@H]2CN3CCSC3=N2)cc1` [LEVAMISOLE], the “Bacterial Biotransformation” value in data set [1] is given as “Compound NOT metabolized”; in data set [2] it was “Compound metabolized”; in data set [3], “Compound NOT metabolized”; in data set [5] it was “Compound metabolized”; in data set [6], “Compound NOT metabolized”; in [10] it was “Compound metabolized”. The “Bacterial Biotransformation” value in data set [11], in [18], in [14], in data set [8], in data set [9] and in data set [15] was “Compound metabolized” throughout. For the same compound, the “Bacterial Biotransformation” value was “Compound metabolized” in data set [19], “Compound NOT metabolized” in [17] and “Compound metabolized” in data set [20].

For `C#C[C@]1(O)CC[C@H]2[C@@H]3CCC4=CC(=O)CC[C@@H]4[C@H]3CC[C@@]21CC` [LEVONORGESTREL], the “Bacterial Biotransformation” value in [1] is “Compound NOT metabolized”; in [2], “Compound metabolized”; in [3], “Compound metabolized”; in data set [4] it was “Compound metabolized”; in [5], “Compound metabolized”; in data set [6], “Compound metabolized”. For the same compound, the “Bacterial Biotransformation” value is reported as “Compound metabolized” in data set [10]; “Compound metabolized” in data set [18]; “Compound metabolized” in data set [12]; “Compound metabolized” in data set [13]; “Compound metabolized” in [14]; “Compound NOT metabolized” in data set [8]. Moreover, the “Bacterial Biotransformation” value in data set [9] is reported as “Compound metabolized”; in data set [15], “Compound metabolized”; in data set [19], “Compound metabolized”; in data set [16] it was “Compound metabolized”; in [17], “Compound NOT metabolized”; in data set [20], “Compound metabolized”.

`O=C1CC[C@@H](C(=O)N2CSC[C@H]2C(=O)O)N1` [PIDOTIMOD] ([pGlu]-[Thz]-OH): the “Bacterial Biotransformation” value in [1] is “Compound NOT metabolized”; in [2] it was “Compound NOT metabolized”; in data set [3] it was “Compound NOT metabolized”; in data set [5], “Compound metabolized”; in [6], “Compound NOT metabolized”; in data set [7], “Compound NOT metabolized”. Further, the “Bacterial Biotransformation” value in [11], in [18], in data set [12], in [13], in [8] and in data set [9] was “Compound NOT metabolized” throughout. In addition, the “Bacterial Biotransformation” value in data set [17] and in [20] was “Compound NOT metabolized” throughout.

For `COC(=O)[C@H]1[C@H]2C[C@@H]3c4[nH]c5cc(OC)ccc5c4CCN3C[C@H]2C[C@@H](OC(=O)c2cc(OC)c(OC)c(OC)c2)[C@@H]1OC` [RESERPINE], the “Bacterial Biotransformation” value in data set [1], in [2], in [3], in [4], in data set [5] and in data set [6] was “Compound NOT metabolized” in each case. The “Bacterial Biotransformation” value in data set [7] was “Compound NOT metabolized”; in data set [10] it was “Compound metabolized”; in data set [11], “Compound NOT metabolized”; in data set [12], “Compound metabolized”; in data set [13] it was “Compound NOT metabolized”; in data set [14], “Compound metabolized”. The “Bacterial Biotransformation” value is given as “Compound NOT metabolized” in data set [8], “Compound NOT metabolized” in data set [9], “Compound metabolized” in [15] and “Compound metabolized” in [19].
